# Experimental data published in patent US11272709B2, “Amidine substituted benzoyl derivatives useful as herbicides” (Syngenta Participations AG, priority 2018, dated 2022).
# What was measured:
# Assay type in all cases: in vivo
# [1] = Comparative experiment, compound 1.049 versus Compound C1, (%) phytotoxicity observed (Table B2); settings: rate 31 g/ha
# Protocol: Seeds of a variety of test species are sown in standard soil in pots (Lolium perenne (LOLPE), Amaranthus retoflexus (AMARE), Abutilon theophrasti (ABUTH), Setaria faberi (SETFA), Echinochloa crus-galli (ECHCG), Ipomoea hederacea (IPOHE)). After cultivation for one day (pre-emergence) or after 8 days cultivation (post-emergence) under controlled conditions in a glasshouse (at 24/16° C., day/night; 14 hours light; 65% humidity), the plants are sprayed with an aqueous spray solution derived from the formulation of the technical active ingredient in acetone/water (50:50) solution containing 0.5% Tween 20 (polyoxyethelyene sorbitan monolaurate, CAS RN 9005-64-5). Compounds are applied at […] unless otherwise indicated. The test plants are then grown in a glasshouse under controlled conditions in a glasshouse (at 24/16° C., day/night; 14 hours light; 65% humidity) and watered twice daily. After 13 days for pre and post-emergence, the test is evaluated for the percentage damage caused to the plant. The biological activities are shown in the following table on a five point scale (5=80-100%; 4=60-79%; 3=40-59%; 2=20-39%; 1=0-19%). [table]
# [2] = system: Amaranthus retoflexus (AMARE); experiment: Post-emergence herbicidal glasshouse test, Amaranthus retoflexus (AMARE); settings: 500 g/h, evaluated after 13 days
# Procedure, shortened: (§1)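 Plants sprayed 1 day (pre-emergence) or 8 days (post-emergence) after sowing, at 500 g/h unless indicated, in acetone/water (50:50) with 0.5% Tween 20. Glasshouse 24/16 °C, 14 h light, 65% humidity. Damage scored at 13 days on a five-point scale (5=80-100% to 1=0-19%).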
# [3] = system: Amaranthus retoflexus (AMARE); experiment: Pre-emergence herbicidal glasshouse test, Amaranthus retoflexus (AMARE); settings: 500 g/h, evaluated after 13 days
# Procedure, shortened: as §1
# [4] = system: Abutilon theophrasti (ABUTH); experiment: Pre-emergence herbicidal glasshouse test, Abutilon theophrasti (ABUTH); settings: 500 g/h, evaluated after 13 days
# Procedure, shortened: as §1
# [5] = system: Echinochloa crus-galli (ECHCG); experiment: Post-emergence herbicidal glasshouse test, Echinochloa crus-galli (ECHCG); settings: 500 g/h, evaluated after 13 days
# Procedure, shortened: as §1
# [6] = system: Abutilon theophrasti (ABUTH); experiment: Post-emergence herbicidal glasshouse test, Abutilon theophrasti (ABUTH); settings: 500 g/h, evaluated after 13 days
# Procedure, shortened: as §1
# Setaria faberi (SETFA) [7] = experiment: Pre-emergence herbicidal glasshouse test, Setaria faberi (SETFA); settings: 500 g/h, evaluated after 13 days
# Procedure, shortened: as §1
# [8] = system: Echinochloa crus-galli (ECHCG); experiment: Pre-emergence herbicidal glasshouse test, Echinochloa crus-galli (ECHCG); settings: 500 g/h, evaluated after 13 days
# Procedure, shortened: as §1
# Setaria faberi (SETFA) [9] = experiment: Post-emergence herbicidal glasshouse test, Setaria faberi (SETFA); settings: 500 g/h, evaluated after 13 days
# Procedure, shortened: as §1
# [10] = system: Ipomoea hederacea (IPOHE); experiment: Pre-emergence herbicidal glasshouse test, Ipomoea hederacea (IPOHE); settings: 500 g/h, evaluated after 13 days
# Procedure, shortened: as §1
# [11] = system: Ipomoea hederacea (IPOHE); experiment: Post-emergence herbicidal glasshouse test, Ipomoea hederacea (IPOHE); settings: 500 g/h, evaluated after 13 days
# Procedure, shortened: as §1
smiles,measurement,setting,value
Cn1nnnc1NC(=O)c1ccc(C(F)(F)F)c(N)c1Cl [Cl],"(%) phytotoxicity observed, POST Application ECHCG","[1]; Echinochloa crus-galli (ECHCG), POST application",0%
same,"(%) phytotoxicity observed, PRE Application ECHCG","[1]; Echinochloa crus-galli (ECHCG), PRE application",0%
same,"(%) phytotoxicity observed, POST Application SETFA","[1]; Setaria faberi (SETFA), POST application",20%
same,"(%) phytotoxicity observed, PRE Application SETFA","[1]; Setaria faberi (SETFA), PRE application",0%
Cc1c(C(=O)C2=C(O)CCCC2=O)ccc(S(C)(=O)=O)c1N=CN(C)C [Compound 3.025],"POST Application AMARE, percentage damage (five point scale)",[2],5 (5=80-100%)
same,"PRE Application AMARE, percentage damage (five point scale)",[3],5 (5=80-100%)
same,"PRE Application ABUTH, percentage damage (five point scale)",[4],5 (5=80-100%)
same,"POST Application ECHCG, percentage damage (five point scale)",[5],5 (5=80-100%)
same,"POST Application ABUTH, percentage damage (five point scale)",[6],5 (5=80-100%)
same,"PRE Application SETFA, percentage damage (five point scale)",Setaria faberi (SETFA) [7],4 (4=60-79%)
same,"PRE Application ECHCG, percentage damage (five point scale)",[8],5 (5=80-100%)
same,"POST Application SETFA, percentage damage (five point scale)",Setaria faberi (SETFA) [9],5 (5=80-100%)
same,"PRE Application IPOHE, percentage damage (five point scale)",[10],4 (4=60-79%)
same,"POST Application IPOHE, percentage damage (five point scale)",[11],5 (5=80-100%)
CN(C)C=Nc1c(C(F)(F)F)ccc(C(=O)C2=C(O)CCCC2=O)c1Cl [Compound 3.049],"POST Application AMARE, percentage damage (five point scale)",[2],5 (5=80-100%)
same,"PRE Application AMARE, percentage damage (five point scale)",[3],5 (5=80-100%)
same,"PRE Application ABUTH, percentage damage (five point scale)",[4],5 (5=80-100%)
same,"POST Application ECHCG, percentage damage (five point scale)",[5],5 (5=80-100%)
same,"POST Application ABUTH, percentage damage (five point scale)",[6],5 (5=80-100%)
same,"PRE Application SETFA, percentage damage (five point scale)",Setaria faberi (SETFA) [7],5 (5=80-100%)
same,"PRE Application ECHCG, percentage damage (five point scale)",[8],5 (5=80-100%)
same,"POST Application SETFA, percentage damage (five point scale)",Setaria faberi (SETFA) [9],5 (5=80-100%)
same,"PRE Application IPOHE, percentage damage (five point scale)",[10],5 (5=80-100%)
same,"POST Application IPOHE, percentage damage (five point scale)",[11],5 (5=80-100%)
CN(C)C=Nc1c(S(C)(=O)=O)ccc(C(=O)C2=C(O)CCCC2=O)c1Cl [Compound 3.057],"POST Application AMARE, percentage damage (five point scale)",[2],5 (5=80-100%)
same,"PRE Application AMARE, percentage damage (five point scale)",[3],5 (5=80-100%)
same,"PRE Application ABUTH, percentage damage (five point scale)",[4],5 (5=80-100%)
same,"POST Application ECHCG, percentage damage (five point scale)",[5],5 (5=80-100%)
same,"POST Application ABUTH, percentage damage (five point scale)",[6],5 (5=80-100%)
same,"PRE Application SETFA, percentage damage (five point scale)",Setaria faberi (SETFA) [7],5 (5=80-100%)
same,"PRE Application ECHCG, percentage damage (five point scale)",[8],5 (5=80-100%)
same,"POST Application SETFA, percentage damage (five point scale)",Setaria faberi (SETFA) [9],5 (5=80-100%)
same,"PRE Application IPOHE, percentage damage (five point scale)",[10],5 (5=80-100%)
same,"POST Application IPOHE, percentage damage (five point scale)",[11],5 (5=80-100%)
CN(C=Nc1c(C(F)(F)F)ccc(C(=O)C2=C(O)CCCC2=O)c1Cl)CC(F)(F)F [Compound 3.130],"POST Application AMARE, percentage damage (five point scale)",[2],5 (5=80-100%)
same,"PRE Application AMARE, percentage damage (five point scale)",[3],5 (5=80-100%)
same,"PRE Application ABUTH, percentage damage (five point scale)",[4],5 (5=80-100%)
same,"POST Application ECHCG, percentage damage (five point scale)",[5],5 (5=80-100%)
same,"POST Application ABUTH, percentage damage (five point scale)",[6],5 (5=80-100%)
same,"PRE Application SETFA, percentage damage (five point scale)",Setaria faberi (SETFA) [7],5 (5=80-100%)
same,"PRE Application ECHCG, percentage damage (five point scale)",[8],5 (5=80-100%)
same,"POST Application SETFA, percentage damage (five point scale)",Setaria faberi (SETFA) [9],5 (5=80-100%)
same,"PRE Application IPOHE, percentage damage (five point scale)",[10],5 (5=80-100%)
same,"POST Application IPOHE, percentage damage (five point scale)",[11],4 (4=60-79%)
CON=C(C)N(C)Cc1c(C(F)(F)F)ccc(C(=O)Nc2nnnn2C)c1Cl [Compound 4.014],"POST Application AMARE, percentage damage (five point scale)",[2],5 (5=80-100%)
same,"PRE Application AMARE, percentage damage (five point scale)",[3],5 (5=80-100%)
same,"PRE Application ABUTH, percentage damage (five point scale)",[4],5 (5=80-100%)
same,"POST Application ECHCG, percentage damage (five point scale)",[5],5 (5=80-100%)
same,"POST Application ABUTH, percentage damage (five point scale)",[6],5 (5=80-100%)
same,"PRE Application SETFA, percentage damage (five point scale)",Setaria faberi (SETFA) [7],5 (5=80-100%)
same,"PRE Application ECHCG, percentage damage (five point scale)",[8],5 (5=80-100%)
same,"POST Application SETFA, percentage damage (five point scale)",Setaria faberi (SETFA) [9],5 (5=80-100%)
same,"PRE Application IPOHE, percentage damage (five point scale)",[10],5 (5=80-100%)
same,"POST Application IPOHE, percentage damage (five point scale)",[11],5 (5=80-100%)
"CON=C(C)N(C)Cc1c(S(C)(=O)=O)ccc(C(=O)Nc2nnnn2C)c1Cl [Compound 4.016, 2-chloro-3-[[[N-methoxy-C-methyl-carbonimidoyl]-methyl-amino]methyl]-4-methylsulfonyl-N-(1-methyltetrazol-5-yl)benzamide]","POST Application AMARE, percentage damage (five point scale)",[2],4 (4=60-79%)
same,"PRE Application AMARE, percentage damage (five point scale)",[3],5 (5=80-100%)
same,"PRE Application ABUTH, percentage damage (five point scale)",[4],5 (5=80-100%)
same,"POST Application ECHCG, percentage damage (five point scale)",[5],5 (5=80-100%)
same,"POST Application ABUTH, percentage damage (five point scale)",[6],3 (3=40-59%)
same,"PRE Application SETFA, percentage damage (five point scale)",Setaria faberi (SETFA) [7],5 (5=80-100%)
same,"PRE Application ECHCG, percentage damage (five point scale)",[8],5 (5=80-100%)
same,"POST Application SETFA, percentage damage (five point scale)",Setaria faberi (SETFA) [9],5 (5=80-100%)
same,"PRE Application IPOHE, percentage damage (five point scale)",[10],5 (5=80-100%)
same,"POST Application IPOHE, percentage damage (five point scale)",[11],4 (4=60-79%)
CON=C(C)N(C)Cc1c(S(C)(=O)=O)ccc(C(=O)Nc2nnc(C)o2)c1Cl [Compound 5.016],"POST Application AMARE, percentage damage (five point scale)",[2],4 (4=60-79%)
same,"PRE Application AMARE, percentage damage (five point scale)",[3],5 (5=80-100%)
same,"PRE Application ABUTH, percentage damage (five point scale)",[4],5 (5=80-100%)
same,"POST Application ECHCG, percentage damage (five point scale)",[5],5 (5=80-100%)
same,"POST Application ABUTH, percentage damage (five point scale)",[6],3 (3=40-59%)
same,"PRE Application SETFA, percentage damage (five point scale)",Setaria faberi (SETFA) [7],5 (5=80-100%)
same,"PRE Application ECHCG, percentage damage (five point scale)",[8],5 (5=80-100%)
same,"POST Application SETFA, percentage damage (five point scale)",Setaria faberi (SETFA) [9],5 (5=80-100%)
same,"PRE Application IPOHE, percentage damage (five point scale)",[10],5 (5=80-100%)
same,"POST Application IPOHE, percentage damage (five point scale)",[11],4 (4=60-79%)
CCCn1nnnc1NC(=O)c1ccc(S(C)(=O)=O)c(N=CN(C)C)c1C [Compound 7.002],"POST Application AMARE, percentage damage (five point scale)",[2],5 (5=80-100%)
same,"PRE Application AMARE, percentage damage (five point scale)",[3],5 (5=80-100%)
same,"PRE Application ABUTH, percentage damage (five point scale)",[4],5 (5=80-100%)
same,"POST Application ECHCG, percentage damage (five point scale)",[5],5 (5=80-100%)
same,"POST Application ABUTH, percentage damage (five point scale)",[6],5 (5=80-100%)
same,"PRE Application SETFA, percentage damage (five point scale)",Setaria faberi (SETFA) [7],5 (5=80-100%)
same,"PRE Application ECHCG, percentage damage (five point scale)",[8],5 (5=80-100%)
same,"POST Application SETFA, percentage damage (five point scale)",Setaria faberi (SETFA) [9],5 (5=80-100%)
same,"PRE Application IPOHE, percentage damage (five point scale)",[10],5 (5=80-100%)
same,"POST Application IPOHE, percentage damage (five point scale)",[11],4 (4=60-79%)
COCCn1nnnc1NC(=O)c1ccc(S(C)(=O)=O)c(N=CN(C)C)c1C [Compound 7.003],"POST Application AMARE, percentage damage (five point scale)",[2],5 (5=80-100%)
same,"PRE Application AMARE, percentage damage (five point scale)",[3],5 (5=80-100%)
same,"PRE Application ABUTH, percentage damage (five point scale)",[4],5 (5=80-100%)
same,"POST Application ECHCG, percentage damage (five point scale)",[5],5 (5=80-100%)
same,"POST Application ABUTH, percentage damage (five point scale)",[6],5 (5=80-100%)
same,"PRE Application SETFA, percentage damage (five point scale)",Setaria faberi (SETFA) [7],5 (5=80-100%)
same,"PRE Application ECHCG, percentage damage (five point scale)",[8],5 (5=80-100%)
same,"POST Application SETFA, percentage damage (five point scale)",Setaria faberi (SETFA) [9],5 (5=80-100%)
same,"PRE Application IPOHE, percentage damage (five point scale)",[10],5 (5=80-100%)
same,"POST Application IPOHE, percentage damage (five point scale)",[11],5 (5=80-100%)
